Measured values as given in US20250066371A1, “FLUOROALKOXYALKYLENE-DIHYDROIMIDAZO[5,1-D]TETRAZINONE COMPOUNDS AND RELATED COMPOUNDS AND THEIR USE IN TREATING MEDICAL CONDITIONS” (priority 2023, published 2025).

How the values were obtained:
Experiment in all cases: Cell panel nuclear dye assay
Format in all cases: cell-based
[1] = system: SR; conditions: Homo sapiens, 120 h, Lymphoma (large cell immunoblastic), 5-day incubation
Experimental: (§1) Cells were grown in RPMI1640, 10% FBS, 2 mM L-alanyl-L-glutamine, 1 mM Na pyruvate, or a special medium. Cells were seeded into 384-well plates and incubated in a humidified atmosphere of 5% CO2 at 37° C. Compound was added the day following cell seeding. At the same time, a time zero untreated cell plate was generated. After a 5-day incubation period, cells were fixed and stained to allow fluorescence imaging of nuclei.
(§2) Compounds were serially diluted in 2-fold steps from the highest test concentration specified, and assayed over 10 concentrations with a maximum assay concentration of 0.1% DMSO. Automated fluorescence microscopy was carried out using a Molecular Devices ImageXpress Micro XL high-content imager, and images were collected with a 4× objective. 16-bit TIFF images were acquired and analyzed with MetaXpress 5.1.0.41 software.
(§3) Cell proliferation was measured by the fluorescence intensity of an incorporated nuclear dye. The output is referred to as the relative cell count, where the measured nuclear intensity is transformed to percent of control (POC) using the following formula: […]
(§4) Cell count IC50 is the test compound concentration at 50% of maximal possible response. EC50 is the test compound concentration at the curve inflection point or half the effective response (parameter C of the fitted curve solution). GI50 is the concentration needed to reduce the observed growth by half (midway between the curve maximum and the time zero value). Activity area is an estimate of the integrated area above the curve. Activity area values range from 0-10, where a value of zero indicates no inhibition of proliferation at all concentrations, and a value of 10 indicates complete inhibition of proliferation at all concentrations. In rare instances, values <0 or >10 may be observed. In these instances, values <0 should be considered as equivalent to 0, whereas values >10 should be considered equivalent to 10.

[2] = system: SU-DHL-10; conditions: Homo sapiens, SU-DHL10, 120 h, Lymphoma (large cell), 5-day incubation
Experimental: as §1, §2, §3, §4

[3] = system: DBTRG-05MG; conditions: Homo sapiens, 120 h, Glioma (glioblastoma multiforme), 5-day incubation
Experimental: as §1, §2, §3, §4

[4] = system: SU-DHL-8; conditions: Homo sapiens, 120 h, Lymphoma (large cell), 5-day incubation
Experimental: as §1, §2, §3, §4

[5] = system: NCI-H69; conditions: Homo sapiens, 120 h, Lung (SCLC), 5-day incubation
Experimental: as §1, §2, §3, §4

[6] = system: DB; conditions: Homo sapiens, 120 h, Lymphoma (B-cell), 5-day incubation
Experimental: as §1, §2, §3, §4

[7] = system: TUR; conditions: 120 h, Lymphoma (histiocytic), 5-day incubation
Experimental: as §1, §2, §3, §4

[8] = system: SH-4; conditions: Homo sapiens, 120 h, Melanoma, 5-day incubation
Experimental: as §1, §2, §3, §4

[9] = system: C32; conditions: Homo sapiens, 120 h, Melanoma, 5-day incubation
Experimental: as §1, §2, §3, §4

[10] = system: U-87 MG; conditions: Homo sapiens, 120 h, Glioma (glioblastoma), 5-day incubation
Experimental: as §1, §2, §3, §4

[11] = system: SW48; conditions: Homo sapiens, 120 h, Colon, 5-day incubation
Experimental: as §1, §2, §3, §4

[12] = system: A-253; conditions: Homo sapiens, A253, 120 h, Head & neck (epidermoid carcinoma, salivary gland), 5-day incubation
Experimental: as §1, §2, §3, §4

[13] = system: BC-1; conditions: Homo sapiens, BC1, 120 h, Lymphoma (B-cell), 5-day incubation
Experimental: as §1, §2, §3, §4

[14] = system: DK-MG; conditions: 120 h, Glioma, 5-day incubation
Experimental: as §1, §2, §3, §4

[15] = system: 5637; conditions: 120 h, Bladder, 5-day incubation
Experimental: as §1, §2, §3, §4

[16] = system: CCF-STTG1; conditions: Homo sapiens, 120 h, Glioma (astrocytoma), 5-day incubation
Experimental: as §1, §2, §3, §4

[17] = system: SW1783; conditions: Homo sapiens, 120 h, Glioma (astrocytoma), 5-day incubation
Experimental: as §1, §2, §3, §4

[18] = system: 647-V; conditions: Homo sapiens, 120 h, Bladder, 5-day incubation
Experimental: as §1, §2, §3, §4

[19] = system: Colo 320DM; conditions: Homo sapiens, 120 h, Colon, 5-day incubation
Experimental: as §1, §2, §3, §4

[20] = system: SK-N-AS; conditions: Homo sapiens, 120 h, Neuroblastoma, 5-day incubation
Experimental: as §1, §2, §3, §4

[21] = system: OE21; conditions: 120 h, Head & neck (squamous cell carcinoma, esophagus), 5-day incubation
Experimental: as §1, §2, §3, §4

[22] = system: MT-3; conditions: 120 h, Colon, 5-day incubation
Experimental: as §1, §2, §3, §4

[23] = system: SaOS2; conditions: Homo sapiens, SAOS-2, 120 h, Osteosarcoma, 5-day incubation
Experimental: as §1, §2, §3, §4

[24] = system: OE33; conditions: Homo sapiens, 120 h, Head & neck (esophageal carcinoma), 5-day incubation
Experimental: as §1, §2, §3, §4

[25] = system: Jiyoye; conditions: Homo sapiens, 120 h, Lymphoma (Burkitt's), 5-day incubation
Experimental: as §1, §2, §3, §4

With `NC(=O)c1ncn2c(=O)n(CCOC(F)(F)F)nnc12` [Compound I-1, 4-Oxo-3-(2-(trifluoromethoxy)ethyl)-3,4-dihydroimidazo[5,1-d][1,2,3,5]tetrazine-8-carboxamide] the EC50 [1] was ≤ 30 µM, the IC50 [1] was ≤ 30 µM and the EC50 [2] was ≤ 30 µM. For the same compound, the IC50 [2] was 30 to 70 µM, the EC50 [3] was ≤ 30 µM and the IC50 [3] was ≤ 30 µM. The EC50 [4] was ≤ 30 µM, the IC50 [4] was ≤ 30 µM and the EC50 [5] was ≤ 30 µM. The IC50 [5] was ≤ 30 µM, the EC50 [6] was ≤ 30 µM and the IC50 [6] was 30 to 70 µM. For the same compound, the EC50 [7] was ≤ 30 µM, the IC50 [7] was ≤ 30 µM and the EC50 [8] was 30 to 70 µM. For the same compound, the IC50 [8] was 30 to 70 µM, the EC50 [9] was 30 to 70 µM and the IC50 [9] was 70 to 150 µM. For the same compound, the EC50 [10] was 30 to 70 µM, the IC50 [10] was 70 to 150 µM and the EC50 [11] was ≤ 30 µM. The IC50 [11] was ≤ 30 µM, the EC50 [12] was 70 to 150 µM and the IC50 [12] was 70 to 150 µM. For the same compound, the EC50 [13] was ≤ 30 µM, the IC50 [13] was ≤ 30 µM and the EC50 [14] was ≤ 30 µM. For the same compound, the IC50 [14] was 30 to 70 µM, the EC50 [15] was 30 to 70 µM and the IC50 [15] was 30 to 70 µM. For the same compound, the EC50 [16] was ≤ 30 µM, the IC50 [16] was 30 to 70 µM and the EC50 [17] was 70 to 150 µM. The IC50 [17] was 70 to 150 µM, the EC50 [18] was 30 to 70 µM and the IC50 [18] was 30 to 70 µM. For the same compound, the EC50 [19] was 30 to 70 µM, the IC50 [19] was 30 to 70 µM and the EC50 [20] was > 150 µM. For the same compound, the IC50 [20] was > 150 µM, the EC50 [21] was 30 to 70 µM and the IC50 [21] was 30 to 70 µM. For the same compound, the EC50 [22] was ≤ 30 µM, the IC50 [22] was ≤ 30 µM and the EC50 [23] was ≤ 30 µM. The IC50 [23] was ≤ 30 µM, the EC50 [24] was 30 to 70 µM and the IC50 [24] was 30 to 70 µM. It also gave an EC50 [25] of 30 to 70 µM and an IC50 [25] of 30 to 70 µM.
